Measurements taken from PubChem BioAssay AID330 (DTP/NCI, 2004).
Values joined by “and” are separate entries in the source; they are usually repeats but may differ in a detail not shown here. Identical values can stand only once. Inconclusive results and toxic doses are left out. The calls were made as follows: active = survival T/C of 150% or more; inactive = T/C below 125% in these data.

System: P388 leukemia ip, CD2F1 mice, survival T/C
Experiment: NCI In Vivo Anticancer Drug Screen. Data for tumor model P388 Leukemia (intraperitoneal) in CD2F1 (CDF1) mice
Conditions: endpoint: median survival time, higher = longer survival
Summary of the method: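 Mice carrying the transplanted tumor received test compound or vehicle. Survival was recorded in each group, and the value is the treated-group measurement divided by that of the vehicle-treated control group.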

[1] = dose: 60.0 mg/kg/injection, schedule: Q01DX005 (ip), vehicle: Klucel (hydroxypropylcellulose) (HPC)
[2] = dose: 120.0 mg/kg/injection, schedule: Q01DX005 (ip), vehicle: Klucel (hydroxypropylcellulose) (HPC)
[3] = dose: 240.0 mg/kg/injection, schedule: Q01DX005 (ip), vehicle: Klucel (hydroxypropylcellulose) (HPC)
[4] = dose: 50.0 mg/kg/injection, schedule: Q01DX005 (ip), vehicle: saline with Tween-80
[5] = dose: 200.0 mg/kg/injection, schedule: Q01DX005 (ip), vehicle: saline with Tween-80
[6] = dose: 50.0 mg/kg/injection, schedule: Q01DX009 (ip), vehicle: Klucel (hydroxypropylcellulose) (HPC)
[7] = dose: 100.0 mg/kg/injection, schedule: Q01DX009 (ip), vehicle: Klucel (hydroxypropylcellulose) (HPC)
[8] = dose: 200.0 mg/kg/injection, schedule: Q01DX009 (ip), vehicle: Klucel (hydroxypropylcellulose) (HPC)
[9] = dose: 50.0 mg/kg/injection, schedule: Q04DX003 (ip), vehicle: saline
[10] = dose: 100.0 mg/kg/injection, schedule: Q04DX003 (ip), vehicle: saline

Measured: T/C

CC(=O)NCNC(C)=O
inactive: dose: 50.0 mg/kg/injection, schedule: Q01DX009 (ip), vehicle: saline 100 % of control | dose: 100.0 mg/kg/injection, schedule: Q01DX009 (ip), vehicle: saline 97 % of control | dose: 200.0 mg/kg/injection, schedule: Q01DX009 (ip), vehicle: saline 108 % of control

CC1SC2(C(=O)Nc3ccccc32)N(c2ccc(O)cc2)C1=O (stereo not drawn)
inactive: [1] 91 % of control | [2] 100 % of control | [3] 94 % of control

COC(=O)C1(OC(=O)CCC(=O)O)C(=O)NC2=C1C(=O)c1ccccc1C2=O (stereo not drawn)
inactive: [4] 109 % of control and 119 % of control | [5] 111 % of control and 113 % of control

C=C1C[C@@H]2[C@H](C1=O)[C@@H]1CC[C@H]3O[C@]31C2(C)C
inactive: dose: 50.0 mg/kg/injection, schedule: Q04DX002 (ip), vehicle: Klucel (hydroxypropylcellulose) (HPC) 106 % of control | dose: 100.0 mg/kg/injection, schedule: Q04DX002 (ip), vehicle: Klucel (hydroxypropylcellulose) (HPC) 101 % of control | dose: 200.0 mg/kg/injection, schedule: Q04DX002 (ip), vehicle: Klucel (hydroxypropylcellulose) (HPC) 100 % of control

Clc1ccc(-c2n[nH]c3c2Cc2ccccc2-3)cc1Cl
inactive: dose: 50.0 mg/kg/injection, schedule: Q01DX005 (ip), vehicle: Klucel (hydroxypropylcellulose) (HPC) 97 % of control | dose: 100.0 mg/kg/injection, schedule: Q01DX005 (ip), vehicle: Klucel (hydroxypropylcellulose) (HPC) 91 % of control | dose: 200.0 mg/kg/injection, schedule: Q01DX005 (ip), vehicle: Klucel (hydroxypropylcellulose) (HPC) 98 % of control

O=S(=O)(Cc1ccccc1)CS(=O)(=O)Cc1ccccc1
inactive: [6] 104 % of control | [7] 106 % of control | [8] 103 % of control | dose: 400.0 mg/kg/injection, schedule: Q01DX009 (ip), vehicle: Klucel (hydroxypropylcellulose) (HPC) 101 % of control

CCOP(=S)(N1CC1C)N1CC1C (stereo not drawn)
inactive: dose: 50.0 mg/kg/injection, schedule: Q01DX009 (ip), vehicle: saline with Tween-80 120 % of control | dose: 66.0 mg/kg/injection, schedule: Q04DX003 (ip), vehicle: saline with Tween-80 100 % of control | dose: 100.0 mg/kg/injection, schedule: Q04DX003 (ip), vehicle: saline with Tween-80 109 % of control

O=S(=O)(NO)c1cccc(S(=O)(=O)NO)c1
inactive: dose: 25.0 mg/kg/injection, schedule: Q04DX003 (ip), vehicle: saline 110 % of control | [9] 115 % of control | [10] 110 % of control

O=c1oc2c(O)c(O)cc3c(=O)oc4c(O)c(O)cc1c4c23
inactive: dose: 50.0 mg/kg/injection, schedule: Q01DX009 (ip), vehicle: other 121 % of control | [9] 100 % of control | dose: 100.0 mg/kg/injection, schedule: Q01DX009 (ip), vehicle: other 123 % of control | [10] 103 % of control | dose: 200.0 mg/kg/injection, schedule: Q01DX009 (ip), vehicle: other 117 % of control and 123 % of control | dose: 200.0 mg/kg/injection, schedule: Q04DX003 (ip), vehicle: saline 112 % of control | dose: 400.0 mg/kg/injection, schedule: Q01DX009 (ip), vehicle: other 102 % of control and 108 % of control

COC1(OC)C(c2ccc(Cl)cc2)C(C#N)(C#N)C1(OC)OC (stereo not drawn)
inactive: [1] 100 % of control | [2] 102 % of control | [3] 96 % of control

COC(=O)CCC1=C(C)c2cc3[n-]c(cc4nc(cc5[n-]c(cc1n2)c(CCC(=O)OC)c5C)C=C4C)cc3C.[Ni+2]
inactive: dose: 100.0 mg/kg/injection, schedule: Q01DX009 (ip), vehicle: saline with Tween-80 90 % of control | dose: 200.0 mg/kg/injection, schedule: Q01DX009 (ip), vehicle: saline with Tween-80 90 % of control | dose: 400.0 mg/kg/injection, schedule: Q01DX009 (ip), vehicle: saline with Tween-80 86 % of control

C#CC(CC)OC(=O)c1ccc([N+](=O)[O-])cc1 (stereo not drawn)
inactive: [6] 103 % of control | [7] 103 % of control | [8] 91 % of control

N=C(N)c1ccc2nc(/C=C\c3nc4ccc(C(=N)N)cc4[nH]3)[nH]c2c1
inactive: dose: 100.0 mg/kg/injection, schedule: Q04DX002 (ip), vehicle: saline 110 % of control | dose: 200.0 mg/kg/injection, schedule: Q04DX002 (ip), vehicle: saline 117 % of control

CCCCCCN(CCCCCC)c1nc(Cl)nc(NCC)n1
inactive: [4] 111 % of control | dose: 100.0 mg/kg/injection, schedule: Q01DX005 (ip), vehicle: saline with Tween-80 103 % of control | [5] 103 % of control

Cn1/c(=N\NC(=O)c2ccncc2)sc2ccccc21
inactive: dose: 6.25 mg/kg/injection, schedule: Q01DX009 (ip), vehicle: Klucel (hydroxypropylcellulose) (HPC) 110 % of control | dose: 12.5 mg/kg/injection, schedule: Q01DX009 (ip), vehicle: Klucel (hydroxypropylcellulose) (HPC) 107 % of control | dose: 25.0 mg/kg/injection, schedule: Q01DX009 (ip), vehicle: Klucel (hydroxypropylcellulose) (HPC) 115 % of control
